Molecular target: recombinant DYRK1A kinase (Homo sapiens (Human), UniProt Q13627)
Experiment: DYRK1A kinase assay (Ser/Thr 18 peptide Z-lyte FRET)
Format: biochemical
Details: DYRK1A kinase activity, Z-lyte Ser/Thr 18 peptide, 15 μM ATP; method text calls the value IC50; read-out: EC50 (the source's name)
Protocol: Representative compounds were screened using the assay procedure for DYRK1A kinase activity as described below.
Each compound was dissolved in DMSO as a 10 mM stock and used to prepare compound source plates. Serial dilution (1:3, 11-point dose-response curves from 10 μM to 0.00016 μM) and compound transfer was performed using the ECHO 550 (Labcyte, Sunnyvale, CA) into 1536-well black-walled round bottom plates (Coming).
The DYRK1A kinase assay was run using the Ser/Thr 18 peptide Z-lyte assay kit according to manufacturer's instructions (Life Technologies-a Division of Thermo-Fisher). This is a non-radioactive assay using fluorescence resonance energy transfer (FRET) between coumarin and fluorescein to detect kinase activity which is represented as a ratio of coumarin emission/fluorescein emission.
Briefly, recombinant DYRK1A kinase, ATP and Ser/Thr peptide 18 were prepared in 1X Kinase buffer to final concentrations of 0.25 μg/mL, 15 μM, and 4 μM respectively. The mixture was allowed to incubate with the representative compounds for one hour at room temperature. All reactions were performed in duplicate. Unphosphorylated (“0% Control”) and phosphorylated (“100% control”) forms of Ser/Thr 18 served as control reactions. Additionally, an 11-point dose-response curve of Staurosporine (luM top) was run to serve as a positive compound control.
After incubation, Development Reagent A was diluted in Development Buffer then added to the reaction and allowed to further incubate for one hour at room temperature. The plate was read at Ex 400 Em 455 to detect the coumarin signal and Ex 400 Em 520 to measure the signal (EnVision Multilabel Plate Reader, PerkinElmer).
The Emission ratio (Em) was calculated as a ratio of the coumarin (C) emission signal (at 445 nm)/Fluorescein (F) emission signal (at 520 nm). The percent phosphorylation was then calculated using the following formula: [1−((Em ratio X F100%)-C100%)/((C0%-C100%) +(Em ratio X (F100%−F0%)))]. Dose-response curves were generated, and inhibitory concentration (IC50) values were calculated using non-linear regression curve fit in the Dotmatics' Studies Software (Bishops Stortford, UK).

Compound | IC50
COc1nc(N[C@H]2C[C@](C)(N)C2)nn2ccc(-c3ccn4nccc4c3)c12 [Compound 94, trans-N1-(4-Methoxy-5-(pyrazolo[1,5-a]pyridin-5-yl)pyrrolo[2,1-f][1,2,4]triazin-2-yl)-3-methylcyclobutane-1,3-diamine] | 4.1 nM
COc1nc(N[C@H]2CC[C@](C)(O)CC2)nn2cc(F)c(-c3ccc4ncnn4c3)c12 [Compound 589, (1r,4r)-4-((5-([1,2,4]Triazolo[1,5-a]pyridin-6-yl)-6-fluoro-4-methoxypyrrolo-[2,1-f][1,2,4]triazin-2-yl)amino)-1-methylcyclohexan-1-ol] | 0.9 nM
COc1nc(NC2CCC3(CC2)CN(C(C)=O)C3)nn2ccc(-c3ccc4nccnc4c3)c12 [Compound 389, 1-(7-((4-Methoxy-5-(quinoxalin-6-yl)pyrrolo[2,1-f][1,2,4]triazin-2-yl)amino)-2-azaspiro[3.5]nonan-2-yl)ethan-1-one] | 1.3 nM
CCO[C@H]1C[C@@H](Nc2nc(OC)c3c(-c4cnc5nccn5c4)ccn3n2)C1 [Compound 931, N-(cis-3-Ethoxycyclobutyl)-5-(imidazo[1,2-a]pyrimidin-6-yl)-4-methoxypyrrolo[2,1-f][1,2,4]triazin-2-amine] | 1.5 nM
COc1nc(N[C@@H]2CCN(C(C)=O)C[C@@H]2F)nn2ccc(-c3cc(F)c4nc(C)n(CC(F)F)c4c3)c12 [Compound 520, 1-((3S,4R)-4-((5-(1-(2,2-Difluoroethyl)-4-fluoro-2-methyl-1H-benzo[d]imidazol-6-yl)-4-methoxypyrrolo[2,1-f][1,2,4]triazin-2-yl)amino)-3-fluoropiperidin-1-yl)ethan-1-one] | 3 nM
COc1nc(NC2CCN(CC(F)F)CC2)nn2ccc(-c3ccc4ncccc4c3)c12 [Compound 304, N-(1-(2,2-Difluoroethyl)piperidin-4-yl)-4-methoxy-5-(quinolin-6-yl)pyrrolo[2,1-f][1,2,4]triazin-2-amine] | 14.3 nM
COc1nc(N[C@H]2CC[C@@H](O)CC2)nn2ccc(-c3ccc4nnn(CC(F)F)c4c3)c12 [Compound 718, cis-4-((5-(1-(2,2-Difluoroethyl)-1H-benzo[d][1,2,3]triazol-6-yl)-4-methoxypyrrolo[2,1-f][1,2,4]triazin-2-yl)amino)cyclohexan-1-ol] | 0.5 nM
COc1nc(N[C@@H](C)c2ccccn2)nn2ccc(-c3ccn4nccc4c3)c12 [Compound 393, (S)-4-Methoxy-5-(pyrazolo[1,5-a]pyridin-5-yl)-N-(1-(pyridin-2-yl)ethyl)pyrrolo[2,1-f][1,2,4]triazin-2-amine] | 178 nM
COc1nc(N[C@@H]2CCN(C)CC2(F)F)nn2ccc(-c3ccc4nnn(C)c4c3)c12 [Compound 626, (R)—N-(3,3-Difluoro-1-methylpiperidin-4-yl)-4-methoxy-5-(1-methyl-1H-benzo[d][1,2,3]triazol-6-yl)pyrrolo[2,1-f][1,2,4]triazin-2-amine] | 2.7 nM
COc1nc(N[C@H]2CCN(C3CCC3)CC2(F)F)nn2ccc(-c3ccc4nc(C)n(CC(F)F)c4c3)c12 [Compound 141, (S)—N-(1-Cyclobutyl-3,3-difluoropiperidin-4-yl)-5-(1-(2,2-difluoroethyl)-2-methyl-1H-benzo[d]imidazol-6-yl)-4-methoxypyrrolo[2,1-f][1,2,4]triazin-2-amine] | 21.8 nM
COc1nc(N[C@H]2C[C@](C)(C(=O)NC3CC3)C2)nn2ccc(-c3ccc4nnn(C)c4c3)c12 [Compound 218, trans-N-Cyclopropyl-3-((4-methoxy-5-(1-methyl-1H-benzo[d][1,2,3]triazol-6-yl)pyrrolo[2,1-f][1,2,4]triazin-2-yl)amino)-1-methylcyclobutane-1-carboxamide] | 2.9 nM
CC(=O)N1C[C@H](F)[C@H](Nc2nc(O)c3c(-c4cnc5nccn5c4)ccn3n2)C1 [Compound 263, 1-((3S,4R)-3-Fluoro-4-((4-hydroxy-5-(imidazo[1,2-a]pyrimidin-6-yl)pyrrolo[2,1-f][1,2,4]triazin-2-yl)amino)pyrrolidin-1-yl)ethan-1-one] | 112 nM
COCCO[C@H]1CC[C@@H](Nc2nc(OC)c3c(-c4ccn5nccc5c4)ccn3n2)CC1 [Compound 15, 4-Methoxy-N-(cis-4-(2-methoxyethoxy)cyclohexyl)-5-(pyrazolo[1,5-a]pyridin-5-yl)pyrrolo[2,1-f][1,2,4]triazin-2-amine] | 33.7 nM
COc1nc(N[C@H]2CC[C@@](O)(C(F)(F)F)CC2)nn2ccc(-c3ccc4nccnc4c3)c12 [Compound 349, trans-4-((4-Methoxy-5-(quinoxalin-6-yl)pyrrolo[2,1-f][1,2,4]triazin-2-yl)amino)-1-(trifluoromethyl)cyclohexan-1-ol] | 6.6 nM
COc1nc(N[C@H]2CC[C@](C)(O)CC2)nn2cc(F)c(-c3cnc4nccn4c3)c12 [Compound 996, (1r,4r)-4-((6-Fluoro-5-(imidazo[1,2-a]pyrimidin-6-yl)-4-methoxypyrrolo[2,1-f][1,2,4]triazin-2-yl)amino)-1-methylcyclohexan-1-ol] | 2.9 nM
COc1nc(N[C@@H]2CCN(C(C)=O)CC2(F)F)nn2ccc(-c3ccc4nccnc4c3)c12 [Compound 1096, (R)-1-(3,3-Difluoro-4-((4-methoxy-5-(quinoxalin-6-yl)pyrrolo[2,1-f][1,2,4]triazin-2-yl)amino)piperidin-1-yl)ethan-1-one] | 3 nM
COc1nc(NC2CCN(CC(F)(F)F)CC2)nn2ccc(-c3ccc4nccnc4c3)c12 [Compound 363, 4-Methoxy-5-(quinoxalin-6-yl)-N-(1-(2,2,2-trifluoroethyl)piperidin-4-yl)pyrrolo[2,1-f][1,2,4]triazin-2-amine] | 40.1 nM
COc1nc(N[C@H]2C[C@](C)(O)C2)nn2ccc(-c3ccc4nc(C)n(CCO)c4c3)c12 [Compound 170, trans-3-((5-(1-(2-Hydroxyethyl)-2-methyl-1H-benzo[d]imidazol-6-yl)-4-methoxypyrrolo[2,1-f][1,2,4]triazin-2-yl)amino)-1-methylcyclobutan-1-ol] | 8.6 nM
COc1nc(N[C@@H]2CCN(C(C)=O)CC2(F)F)nn2ccc(-c3cc(F)c4nc(C)n(CC(F)F)c4c3)c12 [Compound 526, (R)-1-(4-((5-(1-(2,2-Difluoroethyl)-4-fluoro-2-methyl-1H-benzo[d]imidazol-6-yl)-4-methoxypyrrolo[2,1-f][1,2,4]triazin-2-yl)amino)-3,3-difluoropiperidin-1-yl)ethan-1-one] | 1.6 nM
COc1nc(N[C@H]2CCN(CC(C)(C)O)C[C@H]2F)nn2ccc(-c3ccc4ncccc4c3)c12 [Compound 1045, 1-((3R,4S)-3-Fluoro-4-((4-methoxy-5-(quinolin-6-yl)pyrrolo[2,1-f][1,2,4]triazin-2-yl)amino)piperidin-1-yl)-2-methylpropan-2-ol] | 4.5 nM
CNC(=O)c1cnn2ccc(-c3ccn4nc(N[C@H]5CC[C@](C)(OC)CC5)nc(OC)c34)cc12 [Compound 405, 5-(4-Methoxy-2-(((1r,4r)-4-methoxy-4-methylcyclohexyl)amino)pyrrolo[2,1-f][1,2,4]triazin-5-yl)-N-methylpyrazolo[1,5-a]pyridine-3-carboxamide] | 0.7 nM
COc1nc(N[C@H]2C[C@@](C)(N(C)C)C2)nn2ccc(-c3ccc4nnn(C)c4c3)c12 [Compound 204, cis-N^3-(4-methoxy-5-(1-methyl-1H-benzo[d][1,2,3]triazol-6-yl)pyrrolo[2,1-f][1,2,4]triazin-2-yl)-N^1,N^1,1-trimethylcyclobutane-1,3-diamine] | 3.5 nM
COc1nc(NCC(C)(C)F)nn2ccc(-c3cnc4nccn4c3)c12 [Compound 924, N-(2-Fluoro-2-methylpropyl)-5-(imidazo[1,2-a]pyrimidin-6-yl)-4-methoxypyrrolo[2,1-f][1,2,4]triazin-2-amine] | 2.1 nM
CNC(=O)[C@]1(C)CC[C@H](Nc2nc(OC)c3c(-c4ccc5nnn(C)c5c4)ccn3n2)CC1 [Compound 225, cis-4-((4-Methoxy-5-(1-methyl-1H-benzo[d][1,2,3]triazol-6-yl)pyrrolo[2,1-f][1,2,4]triazin-2-yl)amino)-N,1-dimethylcyclohexane-1-carboxamide] | 11.7 nM
COc1nc(N[C@H]2CN(C)C[C@H]2F)nn2ccc(-c3ccc4nc(C)n(CC(F)F)c4c3)c12 [Compound 113, 5-(1-(2,2-Difluoroethyl)-2-methyl-1H-benzo[d]imidazol-6-yl)-N-((3S,4R)-4-fluoro-1-methylpyrrolidin-3-yl)-4-methoxypyrrolo[2,1-f][1,2,4]triazin-2-amine] | 3.3 nM
COc1nc(N[C@H]2C[C@](C)(O)C2)nn2ccc(-c3ccc4nnn(CC(F)F)c4c3)c12 [Compound 711, (1r,3r)-3-((5-(1-(2,2-Difluoroethyl)-1H-benzo[d][1,2,3]triazol-6-yl)-4-methoxypyrrolo[2,1-f][1,2,4]triazin-2-yl)amino)-1-methylcyclobutan-1-ol] | 0.5 nM

Source: US20240002391A1, “4-ALKOXYPYRROLO[2,1-F][1,2,4]TRIAZINES AND PREPARATION AND USES THEREOF” (BioSplice Therapeutics, Inc., priority 2022, published 2024)
